Measurements as given in patent US20230114728A1 (Venatorx Pharmaceuticals, Inc., priority 2019, published 2023).
pEC50: −log10 of the molar value. Converted amounts (≈) assume the structure as drawn.

Tests used:
[1] = system: P. aeruginosa CDC-0110; assay: Broth microdilution MIC in iron-depleted CAMHB (IDM); assay type: cell-based; conditions: Pseudomonas aeruginosa, CDC0110, read-out: Minimum Inhibitory Concentration, P. aeruginosa CDC-0110
Protocol: (§1) To determine the ability of test compounds to inhibit the growth bacterial strains under conditions of iron-depletion, classic cell based broth microdilution minimum inhibitory concentration (MIC) assays were employed. MIC assays are performed according to CLSI methods except where otherwise noted (CLSI, 2018 and CLSI, 2019). The reference type strain E. coli ATCC 25922 was used to determine the ability of the PBP inhibitors to inhibit the growth of Enterobacteriaceae. Wild-type P. aeruginosa ATCC 27853, A. baumannii ATCC 17978 and A. baumannii ATCC 19606, along with the hyper-permeable P. aeruginosa ATCC 35151, an engineered efflux pump-compromised strain of P. aeruginosa (ΔmexAB-oprM), and an engineered efflux-pump compromised strain of A. baumannii IL123 (ABΔ3-ARAEcPore) were used to determine the ability of PBP inhibitors to penetrate the outer membrane of P. aeruginosa and A. baumannii and assess antibacterial activity against these important gram-negative organisms.
(§2) Briefly, cryo-preserved bacterial cultures of challenge strains are streaked for isolation on appropriate agar medium, in this case cation-adjusted Mueller Hinton agar. Following incubation to allow growth of the colonies, plates are sealed with parafilm and stored refrigerated for up to two weeks. For preparation of assay inoculum and to ensure low variability, at least 5 colonies are picked from the agar plates with an inoculating loop and aseptically transferred to a culture tube containing 3 mL of iron-depleted cation-adjusted Mueller Hinton broth (IDM)—see below for IDM preparation. The broth culture is grown for 3-5 hours at 37° C. with shaking at 200 rpm. Meanwhile, 2-fold serial dilutions of test compounds are conducted in a 96-well plate with a final volume of 75 μL per well at 2-fold the final desired concentration. After the dilution plates are set up the growing cultures are then diluted in a cuvette containing IDM and the optical density is measured at 600 nm. The inoculum is diluted such that 75 μL of this culture in IDM results in a starting bacterial concentration of 2-8×10^5 CFU/mL when added to the dilution plates. The plates are incubated for 16-20 hours for Enterobacteriaceae and Pseudomonas and 20-24 hours for Acinetobacter at 37° C. The MIC values are read visually as the lowest concentration well with no bacterial growth.
(§3) Method for Iron-Depleted Cation-Adjusted Mueller Hinton Broth (IDM) Preparation:
(§4) • Prepare cation-adjusted Mueller Hinton broth as per the manufacturer's recommendations and autoclave. • Add 100 g/L Chelex 100 resin, cover with foil and incubate with stirring for 2 hours • Remove Chelex 100 resin by filtration with 0.45 μm filter flask • Add the following back to the medium: • CaCl2 dihydrate: 82.5 mg/L • MgCl2 hexahydrate: 94.1 mg/L • ZnSO4: 10 μM • Adjust pH of medium to 7.3 with 5 N HCl • Sterilize using a 0.22 µm filter flask

[2] = system: P. aeruginosa CDC-0095 producing OXA-50, and PAO; assay: as above; assay type: cell-based; conditions: Pseudomonas aeruginosa, read-out: Minimum Inhibitory Concentration, P. aeruginosa CDC-0095
Protocol: (§5) Example IV: In Vitro Antibacterial Assays in Iron-Depleted Cation-Adjusted Mueller-Hinton Broth
as §1, §2, §3, §4

[3] = system: P. aeruginosa (ΔmexAB-oprM); assay: as above; assay type: cell-based; conditions: Pseudomonas aeruginosa, read-out: Minimum Inhibitory Concentration, P. aeruginosa ΔmexAB-OprM
Protocol: as §5, §1, §2, §3, §4

[4] = system: P. aeruginosa ATCC 35151; assay: as above; assay type: cell-based; conditions: Pseudomonas aeruginosa, ATCC35151; iron-depleted MHB (IDM); hyper-permeable strain; read-out: Minimum Inhibitory Concentration, P. aeruginosa ATCC 35151
Protocol: as §5, §1, §2, §3, §4

[5] = system: A. baumannii CDC-0033 producing NDM-1, and OXA-94; assay: as above; assay type: cell-based; conditions: Acinetobacter baumannii, read-out: Minimum Inhibitory Concentration, CDC-0033
Protocol: as §5, §1, §2, §3, §4

[6] = system: A. baumannii CDC-0083 producing NDM-1, PER-7, OXA-23, and OXA-69; assay: as above; assay type: cell-based; conditions: Acinetobacter baumannii, read-out: Minimum Inhibitory Concentration, CDC-0083
Protocol: as §5, §1, §2, §3, §4

[7] = system: A. baumannii ATCC 19606; assay: as above; assay type: cell-based; conditions: Acinetobacter baumannii, ATCC19606, read-out: Minimum Inhibitory Concentration, ATCC 19606
Protocol: as §5, §1, §2, §3, §4

[8] = system: P. aeruginosa ATCC 27853; assay: as above; assay type: cell-based; conditions: Pseudomonas aeruginosa, ATCC27853, read-out: Minimum Inhibitory Concentration, P. aeruginosa ATCC 27853
Protocol: as §5, §1, §2, §3, §4

[9] = system: P. aeruginosa CDC-0054 producing VIM-4, OXA-50, and PAO; assay: as above; assay type: cell-based; conditions: Pseudomonas aeruginosa, read-out: Minimum Inhibitory Concentration, P. aeruginosa CDC-0054
Protocol: as §5, §1, §2, §3, §4

[10] = system: A. baumannii CDC-0036 OXA-65, and OXA-24; assay: as above; assay type: cell-based; conditions: Acinetobacter baumannii, read-out: Minimum Inhibitory Concentration, CDC-0036
Protocol: as §5, §1, §2, §3, §4

[11] = system: A. baumannii ATCC 17978; assay: as above; assay type: cell-based; conditions: Acinetobacter baumannii, ATCC17978, read-out: Minimum Inhibitory Concentration, ATCC 17978
Protocol: as §5, §1, §2, §3, §4

[12] = Bocillin-FL fluorescence polarization competition binding assay, A. baumannii PBP3; conditions: fluorescence polarization competition binding assay using Bocillin-FL; column 3; read-out: 4. baumannii PBP1a Potency
Description: Example I: Experimental Method for Penicillin-Binding Protein Binding Assays with Bocillin-FL Via Fluorescence Polarization
To determine the ability of boronic acid-based test PBP inhibitors to bind Penicillin Binding Proteins (PBPs), Bocillin-FL (fluorescently-labeled penicillin V; ThermoFisher Scientific) was used in a fluorescence polarization (FP) competition binding assay to assess inhibitor binding to PBP2, PBP3 or PBP4 from Escherichia coli (K12), PBP3 from Pseudomonas aeruginosa (PA01), PBP1a, PBP2 and PBP3 from Acinetobacter baumannii (ATCC 19606), and PBP2 from Neiserria gonorrheae (FA19). PBPs were cloned and purified as described previously (E. coli PBPs, King, D. T, et al., ACS Infectious Diseases 2015, 1, 175-184; P. aeruginosa PBP3, Han et. al., PNAS 2010, 107 (51), 22002-22007; A. baumannii PBPs, Penwell et. al., Antimicrob. Agents Chemother. 2015, 59 (3), 1680-1689; N. gonorrhoeae PBP2, Singh et. al., J Biol. Chem. 2019, 294 (38), 14020-14032). To establish assay conditions for competition binding, enzyme titration/saturation binding experiments were initially performed. Bocillin-FL was prepared at 0.2 μM in a buffer comprised of 50 mM Hepes (pH 8.0), 300 mM NaCl and 5% (v/v) glycerol for reactions with E. coli, P. aeruginosa and N. gonorrhoeae PBPs, and 25 mM Tris (pH 8.0), 200 mM NaCl and 10% (v/v) glycerol and 0.005% (v/v) Tween 20 for reactions with A. baumannii PBPs. Saturation binding was performed by mixing 40 μl of PBP solutions ranging in concentrations from 0-24 μM with 40 μl of the 0.2 μM Bocillin-FL solution, in individual wells of a black 384-well microplate. FP was measured immediately upon mixing (Excitation, 490 nm; Emission, 520 nm; g-factor, 0.96), using a Cytation3 (BioTek) microplate reader and measured continuously for up to 120 minutes. […] The competition binding assay (80 μl final volume) was validated using beta-lactams and PBPs at final concentrations of: 1.5 μM, E. coli PBP3; 0.75 μM, P. aeruginosa PBP3; 1 μM A. baumannii PBP1a; 2.5 μM A. baumannii PBP2; 0.2 μM A. baumannii PBP3; and […] N. gonorrhoeae PBP2. Bocillin-FL was at 0.1 μM (0.05 μM with A. baumannii PBP1a) and beta-lactam concentrations ranged from 0-1000 μM. […] Bocillin-FL was added and the FP immediately measured for up to 60 minutes (90 minutes for E. coli PBP2). […] The beta-lactam potency was reported as the concentration of beta-lactam required to reduce the amount of PBP bound-Bocillin-FL by 50% (EC50). […] Binding assays for boronic acid PBP inhibitors were performed in an identical fashion for the respective PBPs

[13] = system: A. baumannii CDC-0045 producing TEM-1D, OXA-23, and OXA-69; assay: Broth microdilution MIC in iron-depleted CAMHB (IDM); assay type: cell-based; conditions: Acinetobacter baumannii, read-out: Minimum Inhibitory Concentration, CDC-0045

SMILES | MIC [1] [µg/mL] | MIC [2] [µg/mL] | MIC [3] [µg/mL] | MIC [4] [µg/mL] | MIC [5] [µg/mL] | MIC [6] [µg/mL] | MIC [7] [µg/mL] | MIC [8] [µg/mL] | MIC [9] [µg/mL] | MIC [10] [µg/mL] | MIC [11] [µg/mL] | pEC50 [12] | MIC [13] [µg/mL]
NCCCN1CCN(C(=O)N[C@@H](C(=O)N[C@H]2Cc3ccc(F)c(C(=O)O)c3OB2O)c2c(F)c(F)c(O)c(O)c2Cl)C(=O)C1=O [Example 227, (R)-3-((R)-2-(4-(3-aminopropyl)-2,3-dioxopiperazine-1-carboxamido)-2-(2-chloro-5,6-difluoro-3,4-dihydroxyphenyl)acetamido)-7-fluoro-2-hydroxy-3,4-dihydro-2H-benzo[e][1,2]oxaborinine-8-carboxylic acid] | 0.25 (≈ 0.38 µM) | 2 to 4 (≈ 3.04 to 6.08 µM) | 0.25 (≈ 0.38 µM) | 0.25 (≈ 0.38 µM) | 8 to 16 (≈ 12.2 to 24.3 µM) | 2 to 4 (≈ 3.04 to 6.08 µM) | 0.25 (≈ 0.38 µM) | 0.5 to 1 (≈ 0.76 to 1.52 µM) | 0.5 to 1 (≈ 0.76 to 1.52 µM) | 2 to 4 (≈ 3.04 to 6.08 µM) | 0.25 (≈ 0.38 µM) | < 4.00 | 2 to 4 (≈ 3.04 to 6.08 µM)
CS(=O)(=O)N1CCN(C(=O)N[C@@H](C(=O)N[C@H]2Cc3ccc(F)c(C(=O)O)c3OB2O)c2c(F)c(F)c(O)c(O)c2Cl)C1=O [Example 229, (R)-3-((R)-2-(2-chloro-5,6-difluoro-3,4-dihydroxyphenyl)-2-(3-(methylsulfonyl)-2-oxoimidazolidine-1-carboxamido)acetamido)-7-fluoro-2-hydroxy-3,4-dihydro-2H-benzo[e][1,2]oxaborinine-8-carboxylic acid] | 0.5 to 1 (≈ 0.768 to 1.54 µM) | – | 0.25 (≈ 0.384 µM) | 0.25 (≈ 0.384 µM) | 2 to 4 (≈ 3.07 to 6.15 µM) | 2 to 4 (≈ 3.07 to 6.15 µM) | 0.5 to 1 (≈ 0.768 to 1.54 µM) | 0.5 to 1 (≈ 0.768 to 1.54 µM) | 2 to 4 (≈ 3.07 to 6.15 µM) | 2 to 4 (≈ 3.07 to 6.15 µM) | 0.25 (≈ 0.384 µM) | 4.52 to 5.00 | 8 to 16 (≈ 12.3 to 24.6 µM)
